Columns and labels:
Assay type in all cases: in vivo
Septoria nodorum = test: Test C: preventive spray on wheat seedlings, Septoria glume blotch, disease rating; conditions: wheat seedlings sprayed to run-off, inoculated the following day with Septoria nodorum, 48 h saturated atmosphere then 9 days at 20° C.; test concentration not given
How it was run: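 Preventive test: one day after spraying (to run-off; 200 ppm ≈ 500 g/ha, in acetone/water with 250 ppm surfactant), seedlings received a S. nodorum spore suspension. After 48 h in saturated air and 9 days in a growth chamber, both at 20° C., % disease control versus controls was scored.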

Puccinia recondita = test: Test B: preventive spray on wheat seedlings, wheat leaf rust, disease rating; conditions: wheat seedlings sprayed to run-off, inoculated the following day with Puccinia recondita, 24 h saturated atmosphere then 6 days at 20° C.; test concentration not given
How it was run: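 Preventive test: seedlings inoculated with Puccinia recondita one day after run-off spraying with test suspension (acetone/water, 250 ppm Trem 014; 200 ppm equals 500 g/ha). Rating after 24 h at 20° C in saturation plus 6 days in 20° C growth chamber; 0–100 scale versus controls.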

[1] = tested on: Erysiphe graminis f. sp. tritici; test: Test A: preventive spray on wheat seedlings, wheat powdery mildew, disease rating; conditions: wheat seedlings sprayed to run-off, inoculated the following day with Erysiphe graminis f. sp. tritici, rated after 7 days at 20° C.; test concentration not given
How it was run: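 Preventive test: Erysiphe graminis f. sp. tritici spore dust applied one day after run-off spraying of seedlings with acetone/water/surfactant suspension, 200 ppm equating to 500 g/ha. Plants held 7 days at 20 °C; ratings give % disease control versus controls, 100 full, 0 none.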

Row | Compound | Test C disease control rating (100 = 100% disease control, 0 = no disease control relative to the controls) (Septoria nodorum) [%] | Test B disease control rating (100 = 100% disease control, 0 = no disease control relative to the controls) (Puccinia recondita) [%] | Test A disease control rating (100 = 100% disease control, 0 = no disease control relative to the controls) [1] [%]
1 | CCCN(C)C(=S)Nc1cc(C(C)C)c(OCCC[Si](C)(C)C)cc1C [compound 93] | 99 | 100 | 99
2 | CCN(C)C(=S)Nc1cc(C(C)C)c(OCCC[Si](C)(C)C)cc1C [compound 94] | 100 | 100 | 99
3 | CC(=Nc1cc(C)c(OCCCC(C)C)cc1C)N(C)C [compound 96] | 100 | 100 | 0
4 | CCCC(CCC(C)C)Oc1cc(C)c(N=C(C)N(C)C)cc1C (stereo not drawn) [compound 97] | 85 | 45 | 0
5 | CC(=Nc1cc(C)c(OCCC(C)CC(C)(C)C)cc1C)N(C)C (stereo not drawn) [compound 98] | 94 | 60 | 0
6 | CCCCCC(CCCCC)Oc1cc(C)c(N=C(C)N(C)C)cc1C [compound 99] | 0 | 9 | 0
7 | CCC(CCC(C)C)Oc1cc(C)c(N=C(C)N(C)C)cc1C (stereo not drawn) [compound 100] | 76 | 86 | 0
8 | CCCC(CCC)Oc1cc(C)c(N=C(C)N(C)C)cc1C [compound 101] | 100 | 100 | 100
9 | CC(=Nc1cc(C)c(OC(C)CCC(C)C)cc1C)N(C)C (stereo not drawn) [compound 102] | 89 | 95 | 21
10 | CC(=Nc1cc(C)c(OC(CCC(C)C)CCC(C)C)cc1C)N(C)C [compound 103] | 0 | 0 | 31
11 | C=C(C)CCC(CC)Oc1cc(C)c(N=C(C)N(C)C)cc1C (stereo not drawn) [compound 104] | 0 | 23 | 0
12 | Cc1cc(SC(C)CCC(C)C)c(C)cc1N=CN(C)C (stereo not drawn) [compound 105] | 98 | 100 | 97
13 | CCN(C)C(=S)Nc1cc(C)c(OCCCC(C)C)cc1C [compound 106] | 100 | 100 | 100
14 | Cc1cc(OCCCC(C)C)c(C)cc1NC(=S)N(C)C [compound 107] | 99 | 99 | 60
15 | CCN(CC)C(=S)Nc1cc(C)c(OCCCC(C)C)cc1C [compound 108] | 96 | 89 | 87
16 | CC(=Nc1cc(Cl)c(OCCCC(C)C)cc1C)N(C)C [compound 110] | 99 | 97 | 42

Row | Compound | Test C disease control rating (100 = 100% disease control, 0 = no disease control relative to the controls) (Septoria nodorum) [%] | Test B disease control rating (100 = 100% disease control, 0 = no disease control relative to the controls) (Puccinia recondita) [%] | Test A disease control rating (100 = 100% disease control, 0 = no disease control relative to the controls) [1] [%]
17 | CC(=Nc1cc(Cl)c(OCCCC(C)C)cc1C)N(C)C [compound 111] | 100 | 100 | 99
18 | CCN(C)C(=S)Nc1cc(Cl)c(OCCCC(C)C)cc1C [compound 112] | 99 | 99 | 95
19 | CCN(CC)C(=S)Nc1cc(Cl)c(OCCCC(C)C)cc1C [compound 113] | 100 | 99 | 91
20 | CCN(C)C(=S)Nc1cc(Cl)c(OCCCC(C)C)cc1C [compound 114] | 100 | 100 | 99
21 | Cc1c(N=CN(C)C)cc(Cl)c(OCCCC(C)C)c1Cl [compound 115] | 100 | 85 | 85
22 | CC(=Nc1cc(Cl)c(OCCCC(C)C)c(Cl)c1C)N(C)C [compound 116] | 100 | 92 | 87
23 | CCN(CC)C(=S)Nc1cc(Cl)c(OCCCC(C)C)c(Cl)c1C [compound 117] | 60 | 37 | 29
24 | CCN(C)C(=S)Nc1cc(Cl)c(OCCCC(C)C)c(Cl)c1C [compound 118] | 78 | 100 | 99
25 | Cc1c(NC(=S)N(C)C)cc(Cl)c(OCCCC(C)C)c1Cl [compound 119] | 78 | 64 | 0
26 | CCN(CC)C(=S)Nc1cc(Cl)c(OCCCC(C)(C)C)cc1C [compound 120] | 0 | 8 | 91
27 | Cc1c(NC(=S)N(C)C)cc(Cl)c(OCCCC(C)(C)C)c1Cl [compound 121] | 67 | 85 | 49
28 | CCN(C)C(=S)Nc1cc(Cl)c(OCCCC(C)(C)C)c(Cl)c1C [compound 122] | 0 | 100 | 99
29 | CC(C)CCCOc1cc(Cl)c(NC(=S)N(C)C)cc1Cl [compound 123] | 100 | 46 | 54
30 | CCN(C)C(=S)Nc1cc(Cl)c(OCCCC(C)C)cc1Cl [compound 124] | 100 | 98 | 98
31 | CCN(C)C(=S)Nc1cc(Cl)c(OCCCC(C)C)cc1Cl [compound 125] | 100 | 97 | 96
32 | CC(C)CCCOc1cc(Cl)c(N=CN(C)C)cc1Cl [compound 126] | 100 | 40 | 95

Reference: patent US20050182025A1, “Amidinylphenyl compounds and their use as fungicides” (priority 2002, published 2005)
